# Test results taken from US9113629B2, “4-amino-6-(4-substituted-phenyl)-picolinates and 6-amino-2-(4-substituted-phenyl)-pyrimidine-4-carboxylates and their use as herbicides” (DOW AGROSCIENCES LLC, priority 2013, dated 2015).
# System: not given
# Assay: not given
# Conditions: not given
row,melting point,SMILES
1,124 to 126 °C,Nc1c(F)c(-c2ccc(C(F)(F)F)c(F)c2)nc(C(=O)O)c1Cl [Compound 134]

# System: Key Broadleaf Weed and Crop Species
# Assay: Post-emergent Test II herbicidal activity (Table 5)
# Format: in vivo
# Conditions: post-emergence, 336 h; ABUTH: velvetleaf (Abutilon theophrasti); application rate 70 g ai/ha; 14 days after application; read-out: Visual Growth Reduction (%) 14 Days After Application, ABUTH
# How it was run: (§1)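 Injury was rated visually 14 d after treatment on a 0–100% scale against untreated controls. Test compounds, formulated with crop oil concentrate and surfactant and serially diluted down to 1/16× of the top rate, were applied by track sprayer at 187 L/ha onto first- to second-true-leaf seedlings.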
row,SMILES,pest or weed control at 70 g/ha
1,Nc1c(F)c(-c2ccc(C(F)(F)F)c(F)c2)nc(C(=O)O)c1Cl [Compound 134],85 to 94%

# Same assay, conditions: post-emergence, 336 h; ABUTH: velvetleaf (Abutilon theophrasti); application rate 140 g ai/ha; 14 days after application; read-out: Visual Growth Reduction (%) 14 Days After Application, ABUTH
row,SMILES,pest or weed control at 140 g/ha
1,Nc1c(F)c(-c2ccc(C(F)(F)F)c(F)c2)nc(C(=O)O)c1Cl [Compound 134],85 to 94%

# Same assay, conditions: post-emergence, 336 h; AMARE: redroot pigweed (Amaranthus retroflexus); application rate 70 g ai/ha; 14 days after application; read-out: Visual Growth Reduction (%) 14 Days After Application, AMARE
row,SMILES,pest or weed control at 70 g/ha
1,Nc1c(F)c(-c2ccc(C(F)(F)F)c(F)c2)nc(C(=O)O)c1Cl [Compound 134],85 to 94%

# Same assay, conditions: post-emergence, 336 h; AMARE: redroot pigweed (Amaranthus retroflexus); application rate 140 g ai/ha; 14 days after application; read-out: Visual Growth Reduction (%) 14 Days After Application, AMARE
row,SMILES,pest or weed control at 140 g/ha
1,Nc1c(F)c(-c2ccc(C(F)(F)F)c(F)c2)nc(C(=O)O)c1Cl [Compound 134],95 to 100%

# Same assay, conditions: post-emergence, 336 h; BRSNN: oilseed-rape, canola (Brassica napus); application rate 70 g ai/ha; 14 days after application; read-out: Visual Growth Reduction (%) 14 Days After Application, BRSNN
row,SMILES,pest or weed control at 70 g/ha
1,Nc1c(F)c(-c2ccc(C(F)(F)F)c(F)c2)nc(C(=O)O)c1Cl [Compound 134],95 to 100%

# Same assay, conditions: post-emergence, 336 h; BRSNN: oilseed-rape, canola (Brassica napus); application rate 140 g ai/ha; 14 days after application; read-out: Visual Growth Reduction (%) 14 Days After Application, BRSNN
row,SMILES,pest or weed control at 140 g/ha
1,Nc1c(F)c(-c2ccc(C(F)(F)F)c(F)c2)nc(C(=O)O)c1Cl [Compound 134],95 to 100%

# Same assay, conditions: post-emergence, 336 h; CHEAL: lambsquarters (Chenopodium album); application rate 70 g ai/ha; 14 days after application; read-out: Visual Growth Reduction (%) 14 Days After Application, CHEAL
row,SMILES,pest or weed control at 70 g/ha
1,Nc1c(F)c(-c2ccc(C(F)(F)F)c(F)c2)nc(C(=O)O)c1Cl [Compound 134],95 to 100%

# Same assay, conditions: post-emergence, 336 h; CHEAL: lambsquarters (Chenopodium album); application rate 140 g ai/ha; 14 days after application; read-out: Visual Growth Reduction (%) 14 Days After Application, CHEAL
row,SMILES,pest or weed control at 140 g/ha
1,Nc1c(F)c(-c2ccc(C(F)(F)F)c(F)c2)nc(C(=O)O)c1Cl [Compound 134],95 to 100%

# Same assay, conditions: post-emergence, 336 h; EPHHL: wild poinsettia (Euphorbia heterophylla); application rate 70 g ai/ha; 14 days after application; read-out: Visual Growth Reduction (%) 14 Days After Application, EPHHL
row,SMILES,pest or weed control at 70 g/ha
1,Nc1c(F)c(-c2ccc(C(F)(F)F)c(F)c2)nc(C(=O)O)c1Cl [Compound 134],95 to 100%

# Same assay, conditions: post-emergence, 336 h; EPHHL: wild poinsettia (Euphorbia heterophylla); application rate 140 g ai/ha; 14 days after application; read-out: Visual Growth Reduction (%) 14 Days After Application, EPHHL
row,SMILES,pest or weed control at 140 g/ha
1,Nc1c(F)c(-c2ccc(C(F)(F)F)c(F)c2)nc(C(=O)O)c1Cl [Compound 134],95 to 100%

# Same assay, conditions: post-emergence, 336 h; HELAN: sunflower (Helianthus annuus); application rate 70 g ai/ha; 14 days after application; read-out: Visual Growth Reduction (%) 14 Days After Application, HELAN
row,SMILES,pest or weed control at 70 g/ha
1,Nc1c(F)c(-c2ccc(C(F)(F)F)c(F)c2)nc(C(=O)O)c1Cl [Compound 134],95 to 100%

# Same assay, conditions: post-emergence, 336 h; HELAN: sunflower (Helianthus annuus); application rate 140 g ai/ha; 14 days after application; read-out: Visual Growth Reduction (%) 14 Days After Application, HELAN
row,SMILES,pest or weed control at 140 g/ha
1,Nc1c(F)c(-c2ccc(C(F)(F)F)c(F)c2)nc(C(=O)O)c1Cl [Compound 134],95 to 100%

# Same assay, conditions: post-emergence, 336 h; VIOTR: wild pansy (Viola tricolor); application rate 70 g ai/ha; 14 days after application; read-out: Visual Growth Reduction (%) 14 Days After Application, VIOTR
row,SMILES,pest or weed control at 70 g/ha
1,Nc1c(F)c(-c2ccc(C(F)(F)F)c(F)c2)nc(C(=O)O)c1Cl [Compound 134],95 to 100%

# Same assay, conditions: post-emergence, 336 h; VIOTR: wild pansy (Viola tricolor); application rate 140 g ai/ha; 14 days after application; read-out: Visual Growth Reduction (%) 14 Days After Application, VIOTR
row,SMILES,pest or weed control at 140 g/ha
1,Nc1c(F)c(-c2ccc(C(F)(F)F)c(F)c2)nc(C(=O)O)c1Cl [Compound 134],95 to 100%

# System: Key Grass and Sedge Weeds as well as Grass Crops
# Assay: Post-emergent Test II herbicidal activity (Table 6)
# Format: in vivo
# Conditions: post-emergence, 336 h, CYPES: yellow nutsedge (Cyperus esculentus), 70 g ai/ha, read-out: Visual Growth Reduction (%) 14 Days After Application, CYPES
# How it was run: as §1
row,SMILES,pest or weed control at 70 g/ha
1,Nc1c(F)c(-c2ccc(C(F)(F)F)c(F)c2)nc(C(=O)O)c1Cl [Compound 134],95 to 100%

# Same assay, conditions: post-emergence, 336 h, CYPES: yellow nutsedge (Cyperus esculentus), 140 g ai/ha, read-out: Visual Growth Reduction (%) 14 Days After Application, CYPES
row,SMILES,pest or weed control at 140 g/ha
1,Nc1c(F)c(-c2ccc(C(F)(F)F)c(F)c2)nc(C(=O)O)c1Cl [Compound 134],95 to 100%

# Same assay, conditions: post-emergence, 336 h, DIGSA: crabgrass (Digitaria sanguinalis), 70 g ai/ha, read-out: Visual Growth Reduction (%) 14 Days After Application, DIGSA
row,SMILES,pest or weed control at 70 g/ha
1,Nc1c(F)c(-c2ccc(C(F)(F)F)c(F)c2)nc(C(=O)O)c1Cl [Compound 134],75 to 84%

# Same assay, conditions: post-emergence, 336 h, DIGSA: crabgrass (Digitaria sanguinalis), 140 g ai/ha, read-out: Visual Growth Reduction (%) 14 Days After Application, DIGSA
row,SMILES,pest or weed control at 140 g/ha
1,Nc1c(F)c(-c2ccc(C(F)(F)F)c(F)c2)nc(C(=O)O)c1Cl [Compound 134],85 to 94%

# Same assay, conditions: post-emergence, 336 h, ECHCG: barnyardgrass (Echinochloa crus-galli), 70 g ai/ha, read-out: Visual Growth Reduction (%) 14 Days After Application, ECHCG
row,SMILES,pest or weed control at 70 g/ha
1,Nc1c(F)c(-c2ccc(C(F)(F)F)c(F)c2)nc(C(=O)O)c1Cl [Compound 134],95 to 100%

# Same assay, conditions: post-emergence, 336 h, ECHCG: barnyardgrass (Echinochloa crus-galli), 140 g ai/ha, read-out: Visual Growth Reduction (%) 14 Days After Application, ECHCG
row,SMILES,pest or weed control at 140 g/ha
1,Nc1c(F)c(-c2ccc(C(F)(F)F)c(F)c2)nc(C(=O)O)c1Cl [Compound 134],95 to 100%

# Same assay, conditions: post-emergence, 336 h, ORYSA: rice (Oryza sativa), crop, 70 g ai/ha, read-out: Visual Growth Reduction (%) 14 Days After Application, ORYSA
row,SMILES,pest or weed control at 70 g/ha
1,Nc1c(F)c(-c2ccc(C(F)(F)F)c(F)c2)nc(C(=O)O)c1Cl [Compound 134],45 to 59%

# Same assay, conditions: post-emergence, 336 h, ORYSA: rice (Oryza sativa), crop, 140 g ai/ha, read-out: Visual Growth Reduction (%) 14 Days After Application, ORYSA
row,SMILES,pest or weed control at 140 g/ha
1,Nc1c(F)c(-c2ccc(C(F)(F)F)c(F)c2)nc(C(=O)O)c1Cl [Compound 134],45 to 59%

# Same assay, conditions: post-emergence, 336 h, SETFA: giant foxtail (Setaria faberi), 70 g ai/ha, read-out: Visual Growth Reduction (%) 14 Days After Application, SETFA
row,SMILES,pest or weed control at 70 g/ha
1,Nc1c(F)c(-c2ccc(C(F)(F)F)c(F)c2)nc(C(=O)O)c1Cl [Compound 134],95 to 100%

# Same assay, conditions: post-emergence, 336 h, SETFA: giant foxtail (Setaria faberi), 140 g ai/ha, read-out: Visual Growth Reduction (%) 14 Days After Application, SETFA
row,SMILES,pest or weed control at 140 g/ha
1,Nc1c(F)c(-c2ccc(C(F)(F)F)c(F)c2)nc(C(=O)O)c1Cl [Compound 134],95 to 100%

# Same assay, conditions: post-emergence, 336 h, SORVU: grain sorghum (Sorghum vulgare), 70 g ai/ha, read-out: Visual Growth Reduction (%) 14 Days After Application, SORVU
row,SMILES,pest or weed control at 70 g/ha
1,Nc1c(F)c(-c2ccc(C(F)(F)F)c(F)c2)nc(C(=O)O)c1Cl [Compound 134],85 to 94%

# Same assay, conditions: post-emergence, 336 h, SORVU: grain sorghum (Sorghum vulgare), 140 g ai/ha, read-out: Visual Growth Reduction (%) 14 Days After Application, SORVU
row,SMILES,pest or weed control at 140 g/ha
1,Nc1c(F)c(-c2ccc(C(F)(F)F)c(F)c2)nc(C(=O)O)c1Cl [Compound 134],85 to 94%

# Same assay, conditions: post-emergence, 336 h, TRZSS (wheat, Triticum aestivum), crop, 70 g ai/ha, read-out: Visual Growth Reduction (%) 14 Days After Application, TRZSS
row,SMILES,pest or weed control at 70 g/ha
1,Nc1c(F)c(-c2ccc(C(F)(F)F)c(F)c2)nc(C(=O)O)c1Cl [Compound 134],60 to 74%

# Same assay, conditions: post-emergence, 336 h, TRZSS (wheat, Triticum aestivum), crop, 140 g ai/ha, read-out: Visual Growth Reduction (%) 14 Days After Application, TRZSS
row,SMILES,pest or weed control at 140 g/ha
1,Nc1c(F)c(-c2ccc(C(F)(F)F)c(F)c2)nc(C(=O)O)c1Cl [Compound 134],75 to 84%

# Same assay, conditions: post-emergence, 336 h, ZEAMX: maize, corn (Zea mays), crop, 70 g ai/ha, read-out: Visual Growth Reduction (%) 14 Days After Application, ZEAMX
row,SMILES,pest or weed control at 70 g/ha
1,Nc1c(F)c(-c2ccc(C(F)(F)F)c(F)c2)nc(C(=O)O)c1Cl [Compound 134],45 to 59%

# Same assay, conditions: post-emergence, 336 h, ZEAMX: maize, corn (Zea mays), crop, 140 g ai/ha, read-out: Visual Growth Reduction (%) 14 Days After Application, ZEAMX
row,SMILES,pest or weed control at 140 g/ha
1,Nc1c(F)c(-c2ccc(C(F)(F)F)c(F)c2)nc(C(=O)O)c1Cl [Compound 134],60 to 74%
